According to patent publication US20220135968A1, “TREATMENT OF SYNUCLEINOPATHY AND ANIMAL MODELS OF SYNUCLEINOPATHY” (TORREY PINES LAW GROUP, PC, priority 2018, published 2022):
“Also recorded” adds a separate entry of the source.

Columns and labels:
[1] = tested on: patients; details: cited from earlier work; for disease symptoms in patients: treatment reported in literature
[2] = tested on: Parkinson's mouse models; details: Parkinson's mouse models (Patki, 2011); cited from earlier work
[3] = tested on: MNT-1 cells; experiment: Rapamycin-induced autophagy in MNT-1 cells, melanin content as readout; assay type: cell-based, human; details: autophagy induced by rapamycin, exposure to α-MSH, FIG. 1A
From the text: FIG. 1A is a bar chart depicting α-MSH disabling autophagy in MNT-1 cells when autophagy is induced by rapamycin.
(§1) FIGS. 1-6 show the induction of synucleinopathy in vitro and in vivo upon exposure to α-MSH employing the MNT-1 cell line (a gift from Michael S. Marks, Ph.D.) as an in vitro model of neuromelanin-containing neurons and the mouse administered α-MSH by intranasal route, respectively. […] Additionally, rapamycin induced autophagy was reduced in the prescence of α-MSH (FIG. 1A). Normally an increase in melanin production by MNT-1 is observed in the presence of rapamycin, since rapamycin induces autophagy and autophagy-related genes that promote melanogenesis. Melanin levels serve as a reliable readout of autophagy in MNT-1 (Kalie, 2013). Indeed, a decrease in melanin was observed when autophagy was inhibited in melanocytes (Zhang, 2015).
A human pigmented cell line MNT-1 was utilized as a model for pigmented dopaminergic neurons to assess synuclein pathology following exposure to the inducer, α-MSH. […] Additionally, cell autophagy induced by rapamycin or starvation was disabled (FIGS. 1A and 1B). […] With time, vulnerable cells begin to die and undergo apoptotic cell death as measured by caspase activity (FIG. 4B). α-Synuclein accumulation and aggregation, loss of melanin and cell death by apoptosis are cardinal features observed in synuclein diseases such as PD and MSA.

[4] = tested on: MNT-1 cells; experiment: Starvation-induced (nutrient-depleted) autophagy and melanin formation in MNT-1 cells; assay type: cell-based, human; details: starved MNT-1 cells, α-MSH treated vs untreated, FIG. 1B
From the text: FIG. 1B is a photograph of cells in wells of a culture plate depicting starvation-induced autophagy in cells is inhibited by α-MSH resulting in inhibition of melanin production.
as §1
A human pigmented cell line MNT-1 was utilized as a model for pigmented dopaminergic neurons to assess synuclein pathology following exposure to the inducer, α-MSH. […] With time, vulnerable cells begin to die and undergo apoptotic cell death as measured by caspase activity (FIG. 4B). α-Synuclein accumulation and aggregation, loss of melanin and cell death by apoptosis are cardinal features observed in synuclein diseases such as PD and MSA.

[5] = tested on: MNT-1 cells; experiment: Immunofluorescence staining of intracellular α-synuclein in MNT-1 cells; assay type: cell-based, human
From the text: as §1
FIGS. 2C, 3, and 4C show human ASIP inhibiting the effects of α-MSH in cellular models and is an effective therapeutic for preventing and reversing synuclein pathology. ASIP was tested as a therapeutic for synucleinopathy in the in vitro cellular model of neuromelanin-containing neurons modeled by MNT-1 cells. […] Immunofluorescence from the α-MSH and ASIP treated cells display similar quantity of α-synuclein compared to healthy, non-treated cells. […]

[6] = tested on: MNT-1 cells; experiment: Glucose consumption of cells in culture exposed to α-MSH; assay type: cell-based, human; details: α-MSH exposed vs not exposed cells, low nutrient conditions, FIG. 4A
[7] = tested on: MNT-1 cells; experiment: Apoptosis by fluorescence-based detection of activated caspases (microscopy, flow cytometry); assay type: cell-based, human; details: FIG. 4B
From the text: (§2) FIGS. 4A-C depict the mechanism of cell death induced by α-MSH and inhibition by ASIP, which blocks cell death. […] Vulnerable cells appear with higher fluorescence intensity for the marker of apoptosis, while untreated cells remain alive and show only background fluorescence (top-left panel). […] FIG. 4C is a bar chart depicting ASIP blocking α-MSH effects and protecting against cell death.
as §1

[8] = tested on: mice; experiment: Induction of synucleinopathy in mice by intranasal α-MSH, gait on rotorod; assay type: in vivo, mouse; details: α-MSH intranasal left nostril every other day for one month
From the text: FIGS. 5A-B depict the in vivo induction of synucleinopathy in mice by α-MSH. FIG. 5A is a drawing showing the administration of α-MSH into the left nostril of the mouse and a timeline showing frequency of administration and behavioral testing performed by rotorod. FIG. 5B is a series of rotorod testing photographs of a mouse chronically administered α-MSH by intranasal route for a period of 1 month to induce synucleinopathy (see FIG. 5a).
Three mice were given the inducer, α-MSH, which was administered once every other day for one month through an intranasal route through the left nostril (FIG. 5a), and one mouse not subjected to the α-MSH inducer served as a healthy control. Observations and measurements were taken weekly at the end of α-MSH administration. […] The control mouse not subjected to α-MSH maintained normal gait and leg movement. Gait impairment observed in the three mice given the α-MSH, is characteristic of motor symptoms associated with PD and MSA symptoms. Moreover, the time-dependent intensified serverity of gait impairment after α-MSH administration is indicative of disease progression as measured through manisfestation of worsening physical symptoms. […]
Three mice were given the inducer, α-MSH, through an intranasal route and one mouse was not subjected to α-MSH. The gait of all four mice was monitored every […] after subjection to one month of α-MSH treatment. […]

[9] = tested on: substantia nigra of mouse; experiment: Immunohistochemistry of mouse brain sections for alpha-synuclein; assay type: in vivo; details: mouse given α-MSH in left nostril, anti-mouse alpha synuclein staining, FIG. 6a
Procedure: FIGS. 6A-B are immunohistochemistry microscopy photographs of brain sections stained with anti-mouse alpha synuclein (BD Biosciences, Clone 42/α-Synuclein).
Three mice were given the inducer, α-MSH, which was administered once every other day for one month through an intranasal route through the left nostril (FIG. 5a), and one mouse not subjected to the α-MSH inducer served as a healthy control. Observations and measurements were taken weekly at the end of α-MSH administration. […] The control mouse not subjected to α-MSH maintained normal gait and leg movement. Gait impairment observed in the three mice given the α-MSH, is characteristic of motor symptoms associated with PD and MSA symptoms. Moreover, the time-dependent intensified serverity of gait impairment after α-MSH administration is indicative of disease progression as measured through manisfestation of worsening physical symptoms. A cardinal feature of synucleinopathy pathology is the presence of aggregated intracellular alpha-synuclein, which is the predominant constituent of Lewy bodies and glial cytoplasmic inclusions (GCIs) observed in the affected regions of the brain in PD, MSA and DLB. […] Pathology was absent in the control mouse not subjected to α-MSH (FIG. 6b).

[10] = tested on: MNT-1 cells; experiment: ASIP reversal of α-MSH induced block in autophagy, melanin content; assay type: cell-based, human; details: α-MSH exposed cells treated with ASIP vs not treated, FIG. 3
Procedure: (§3) FIGS. 2C, 3, and 4C show human ASIP inhibiting the effects of α-MSH in cellular models and is an effective therapeutic for preventing and reversing synuclein pathology. ASIP was tested as a therapeutic for synucleinopathy in the in vitro cellular model of neuromelanin-containing neurons modeled by MNT-1 cells. […] Immunofluorescence from the α-MSH and ASIP treated cells display similar quantity of α-synuclein compared to healthy, non-treated cells. This indicates ASIP inhibits the accumulation and aggregation of intracellular α-synuclein, and additionally has the potential to reverse the accrual of toxic protein aggregates and reverse impairment of autophagy. […] Thus, as a therapeutic ASIP promotes an environment ideal for recovery and is amenable for cell restoration strategies. Based on the in vitro cellular model presented herein, ASIP halts induction and progression of synucleinopathy and reverses the disease.

[11] = tested on: MNT-1 cells; experiment: Cell viability of α-MSH exposed cells with ASIP; assay type: cell-based, human; details: α-MSH exposed cells with 200 nM ASIP vs without ASIP, FIG. 4C
From the text: as §2, §3

For “β-Melanocyte Stimulating Hormone [β-MSH]”, the “skin darkening in treated patients” value ([1]; patients treated with β-MSH (Cotzias, 1967)) is given as “darkenening of skin of treated patients” and the “disease symptoms in patients” value [1] is given as “worsening of Parkinsonian symptoms”.

For `COc1ccc2[nH]cc(CCNC(C)=O)c2c1` [melatonin], the “disease symptoms in patients” value [1] is given as “improved PD symptoms” and the locomotor deficits [2] is given as “stalled locomotor deficits”.

For Pro-Leu-Gly-NH2, the “disease symptoms in patients” value [1] is given as “improvement in disease symptoms”.

In the case of “α-Melanocyte Stimulating Hormone [α-MSH]”, the “rapamycin-induced cellular autophagy / melanin levels” value [3] is reported as “disabled; also recorded: lower melanin levels; also recorded: reduced”, the “starvation-induced autophagy / melanin formation” value [4] is reported as “lack of melanin; also recorded: melanin formation is not observed; also recorded: inhibited autophagy and melanin formation” and the “accumulation and aggregation of intracellular α-synuclein” value ([5]; MNT-1 cells exposed to α-MSH vs not exposed, FIG. 2B) is reported as “inducing accumulation and aggregation of α-synuclein; also recorded: increase in intensity of immunofluorescence staining of intracellular α-synuclein”. The glucose consumption [6] was “glucose consumption is observed to be faster; also recorded: consume glucose faster than untreated cells”, the “apoptotic events (flow cytometry, marker of apoptosis)” value ([7]; 4, 7 and 9 days of exposure to α-MSH vs medium alone) was “increasing apoptotic events” and the “cell death by apoptosis (fluorescence microscopy)” value ([7]; α-MSH exposed cells, 6 days) was “die by apoptosis”. For the same molecule, the “gait / leg impairment” value ([8]; four, six and eight weeks after) was “progressive leg impairment; also recorded: impaired/weakened right hind leg, loss of symmetry in gait; also recorded: progressive weakness and deteriorating motor control”, the “gait / leg impairment” value ([8]; two weeks after end of treatment) was “No apparent leg impairment; also recorded: normal gait; also recorded: No significant gait impairment” and the “alpha-synuclein aggregation in substantia nigra” value [9] was “synuclein pathology was observed in the substantia nigra; also recorded: alpha-synuclein aggregation observed in a neuron located in the left substantia nigra; also recorded: Lewy body-like aggregate of alpha-synuclein in the left substantia nigra”.

B1: Agouti Signaling Protein (protein, UniProt P42127 23-132, looked up)
Agouti-signaling protein: HLPPEEKLRDDRSLRSNSSVNLLDVPSVSIVALNKKSKQIGRKAAEKKRSSKKEASMKKVVRPRTPLSAPCVATRNSCKPPAPACCDPCASCQCRFFRSACSCRVLSLNC
In the case of B1, the “inhibition of α-MSH induced α-synuclein accumulation” value ([5]; MNT-1 cells exposed to α-MSH and ASIP, FIG. 2C) is reported as “halt α-synuclein accumulation and aggregation induced by α-MSH; also recorded: inhibition of α-MSH induced accumulation of α-synuclein; also recorded: decreased levels of α-synuclein measured by immunofluorescence”, the “melanin content (restoration of cellular autophagy)” value [10] is reported as “restoring melanin production; also recorded: increase in melanin content; also recorded: restoration of melanin levels” and the “cell viability (protection against cell death)” value [11] is reported as “protects against cell death; also recorded: viability is higher; also recorded: Cells maintain viability”.
